According to patent publication US5508450A, “Benzopyran derivatives” (Ono Pharmaceutical Co., Ltd., priority 1989, dated 1996):
Counter-ions that a name gives are not always drawn.

The molecules below were run on Lysozyme (dimer formation with fructose) (assay: Inhibitory activity on Maillard reaction: formation of lysozyme dimer (lysozyme + fructose, SDS-PAGE, densitometer)). Settings: lysozyme 10 mg/ml, fructose 100 mM, 0.2M sodium phosphate buffer pH 7.4, 37° C., 3 days.
Assay type: biochemical
Method: The inhibitory activity on Maillard reaction of the compounds of the present invention has confirmed by the screening system mentioned below. Lysozyme (10 mg/ml) and fructose (100 mM) were dissolved in 0.2M sodium phosphatic buffer solution (PH 7.4). The solution was incubated at a temperature of 37° C. for 3 days. A given volume of the reaction solution was separated using SDS-PAGE by the electrophoresis. After the electrophoresis, the SDS-PAGE was dyed by 0.2% Coomassie Brilliant Blue R-250 and then the dimer was determined by densitometer. The compounds of the present invention were added before incubation and the inhibitory activity of them against the formation of the dimer was examined in various concentrations and IC50 values were calculated.
`COc1c(O)c(C)c2c(c1OC)OC(C)(CCOC(=O)c1ccc(NC(=N)N)cc1)CC2` (centres unmarked) [1 (d), 2-(2,5-dimethyl-6-hydroxy-7,8-dimethoxy-3,4-di-hydro-2H-benzo[1,2-b]pyran-2-yl)-ethyl4-quanidinobenzoate hydrochloride] was tested, and the IC50 was 340 µM. For `Cc1c(C)c2c(c(C)c1O)CCC(C)(CCOC(=O)c1cccc(NC(=N)N)c1)O2` (centres unmarked) [1 (i), 2-(6-hydroxy-2,5,7,8-tetramethyl-3,4-dihydro-2H-benzo[1,2-b]pyran-2-yl)ethyl3-quanidinobenzoate hydrochloride], the IC50 was 100 µM. In the case of `Cc1c(C)c2c(c(C)c1O)CCC(C)(CCNC(=O)/C=C/c1ccc(NC(=N)N)cc1)O2` (centres unmarked) [2 (e), N-[2-(6-hydroxy-2,5,7,8-tetramethyl-3,4-dihydro-2H-benzo[1,2-b]pyran-2-yl)-ethyl]4-quanidinocinnam-amide hydrochloride], the IC50 is reported as 190 µM. For `Cc1c2c(c3ccccc3c1O)OC(C)(CCNC(=O)c1cccc(NC(=N)N)c1)CC2` (centres unmarked) [2 (f), hydrochloride], the IC50 was 150 µM. In the case of `Cc1c(C)c2c(c(C)c1O)CCC(C)(CCOc1ccc(NC(=N)N)cc1C(F)(F)F)O2` (centres unmarked) [5 (b), 2-trifluoromethyl-4-guanidinophenyl 2-(6-hydroxy-2,5,7,8-tetra-methyl-3,4-dihydro-2H-benzo[1,2-b]pyran-2-yl)ethyl ether hydrochloride], the IC50 is reported as 74 µM. `Cc1cc(OCCC2(C)CCc3c(C)c(O)c(C)c(C)c3O2)ccc1NC(=N)N` (centres unmarked) [5 (c), 3-methyl-4-guanidino-phenyl 2-(6-hydroxy-2,5,7,8-tetramethyl-3,4-dihydro-2H-benzo[1,2-b]pyran-2-yl)ethyl ether hydrochloride] showed an IC50 of 500 µM. `Cc1c2c(c3ccccc3c1O)OC(C)(CCOc1ccc(NC(=N)N)cc1)CC2` (centres unmarked) [5 (f), 4-guanidinophenyl 2-(2,5-dimethyl-6-hydroxy-3,4-dihydro-2H-naphtho[1,2-b]-pyran-2-yl)ethyl ether hydrochloride] showed an IC50 of 22 µM. Molecule `Cc1c(C)c2c(c(C)c1O)CCC(C)(CCOc1ccc(NC(=O)c3cccc(NC(=N)N)c3)cc1)O2` (centres unmarked) [7 (a), N-[4-[2-(6-hydroxy-2,5,7,8-tetramethyl-3,4-dihydro-2H-benzo[1,2-b]pyran-2-yl)-ethoxy]phenyl]-3-guanidino-benzamide hydrochloride] has an IC50 of 200 µM. Work on `Cc1c(C)c2c(c(C)c1O)CCC(C)(CCOc1ccc(NC(=O)/C=C/c3ccc(NC(=N)N)cc3)cc1C(F)(F)F)O2` (centres unmarked) [7 (c), N-[3-trifluoromethyl-4-[2-(6-hydroxy-2,5,7,8-tetramethyl-3,4-dihydro-2H-benzo[1,2-b]pyran-2-yl)-ethoxy]phenyl]-4-guanidino-cinnamamide hydrochloride] yielded an IC50 of 4.8 µM. `CC(=O)Nc1cc(NC(=O)/C=C/c2ccc(NC(=N)N)cc2)ccc1OCCC1(C)CCc2c(C)c(O)c(C)c(C)c2O1` (centres unmarked) [7 (d), N-[3-acetoamide-4-[2-(6-hydroxy-2,5,7,8-tetramethyl-3,4-dihydro-2H-benzo[1,2-b]-pyran-2-yl)ethoxy]phenyl]-4-guanidinocinnamamidehydrochloride] gave an IC50 of 48 µM. `COc1cc(NC(=O)/C=C/c2ccc(NC(=N)N)cc2)ccc1OCCC1(C)CCc2c(C)c(O)c(C)c(C)c2O1` (centres unmarked) [7 (e)] gave an IC50 of 30 µM. Molecule `Cc1cc(OCCC2(C)CCc3c(C)c(O)c(C)c(C)c3O2)ccc1NC(=O)/C=C/c1ccc(NC(=N)N)cc1` (centres unmarked) [7 (f), N-[2-methyl-4-[2-(6-hydroxy-2,5,7,8-tetramethyl-3,4-dihydro-2H-benzo[1,2-b]pyran-2-yl)ethoxy]phenyl]-4-guanidinocinnamamidehydrochloride] has an IC50 of 18 µM. For `Cc1c(C)c2c(c(C)c1O)CCC(C)(CCSc1ccc(NC(=O)c3ccc(NC(=N)N)cc3)cc1)O2` (centres unmarked) [7 (h), N-[4-[2-(6-hydroxy-2,5,7,8-tetramethyl-3,4-dihydro-2H-benzo[1,2-b]pyran-2-yl)-ethylthio]phenyl]-4-guanidinobenzamidehydrochloride], the IC50 was 19 µM. With `Cc1c(C)c2c(c(C)c1O)CCC(C)(CCOc1ccc(NC(=O)c3ccc(NC(=N)N)cc3)cc1C(F)(F)F)O2` (centres unmarked) [7 (k), N-[4-[2-(6-hydroxy-2,5,7,8-tetramethyl-3,4-dihydro-2H-benzo[1,2-b]pyran-2-yl)-ethoxy]-3-trifluoromethyl-phenyl]-4-guanidinobenzamidehydrochloride] the IC50 was 12 µM. In the case of `Cc1c(C)c2c(c(C)c1O)CCC(C)(CCOc1ccc(NC(=O)COc3ccc(NC(=N)N)cc3)cc1)O2` (centres unmarked) [7 (l), N-[4-[2-(6-hydroxy-2,5,7,8-tetramethyl-3,4-dihydro-2H-benzo[1,2-b]pyran-2-yl)-ethoxy]phenyl]-4-guanidinophenoxyacetamidehydrochloride], the IC50 is reported as 54 µM. `Cc1c(C)c2c(c(C)c1O)CCC(C)(CCOc1ccc(NC(=O)c3cccc(NC(=N)N)c3)cc1C(F)(F)F)O2` (centres unmarked) [7 (m), N-[4-[2-(6-hydroxy-2,5,7,8-tetramethyl-3,4-dihydro-2H-benzo[1,2-b]pyran-2-yl)-ethoxy]-3-trifluoromethyl-phenyl]-3-guanidinobenzamidehydrochloride] was tested, and the IC50 was 12 µM. `Cc1c2c(c3ccccc3c1O)OC(C)(CCOc1ccc(NC(=O)/C=C/c3ccc(NC(=N)N)cc3)cc1)CC2` (centres unmarked) [7 (n), N-[4-[2-(2,5-dimethyl-6-hydroxy-3,4-dihydro-2H-naphtho[1,2-b]pyran-2-yl)-ethoxy]phenyl]-4-guanidino-cinnamamide hydrochloride] was tested, and the IC50 was 10 µM. For `Cc1c(C)c2c(c(C)c1O)CCC(C)(CCSc1ccc(NC(=O)CSc3ccc(NC(=N)N)cc3)cc1)O2` (centres unmarked) [7 (t), N-[4-[2-(6-hydroxy-2,5,7,8-tetramethyl-3,4-dihydro-2H-benzo[1,2-b]pyran-2-yl)-ethylthio]phenyl]-4-guanidinophenylthioacetamidehydrochloride], the IC50 was 17 µM. With `Cc1c(C)c2c(c(C)c1O)CCC(C)(CCCCOc1ccc(NC(=O)c3ccc(NC(=N)N)cc3)cc1)O2` (centres unmarked) [9 (a), N-[4-[4-(6-hydroxy-2,5,7,8-tetramethyl-3,4-dihydro-2H-benzo[1,2-b]pyran-2-yl)-butoxy]phenyl]-4-guanidinobenzamidehydrochloride] the IC50 was 10 µM. Work on `Cc1c(C)c2c(c(C)c1O)CCC(C)(CCCCSc1ccc(NC(=O)/C=C/c3ccc(NC(=N)N)cc3)cc1)O2` (centres unmarked) [9 (d), N-[4-[4-(6-hydroxy-2,5,7,8-tetramethyl-3,4-dihydro-2H-benzo[1,2-b]pyran-2-yl)-butylthio]phenyl]-4-guanidinocinnamamidehydrochloride] yielded an IC50 of 5.4 µM. For `Cc1c2c(c3ccccc3c1O)OC(C)(CCCCSc1ccc(NC(=O)c3ccc(NC(=N)N)cc3)cc1)CC2` (centres unmarked) [9 (j), N-[4-[4-(2,5-dimethyl-6-hydroxy-3,4-dihydro-2H-naphtho[1,2-b]pyran-2-yl)-butylthio]phenyl]-4-guanidinobenzamidehydrochloride], the IC50 was 4.8 µM. Work on `Cc1c(C)c2c(c(C)c1O)CCC(C)(CCCCOc1ccc(NC(=O)/C=C/c3ccc(NC(=N)N)cc3)cc1C(F)(F)F)O2` (centres unmarked) [9 (l), N-[4-[4-(6-hydroxy-2,5,7,8-tetramethyl-3,4-dihydro-2H-benzo[1,2-b]pyran-2-yl)-butoxy]-3-trifluoromethyl-phenyl]-4-guanidino-cinnamamide hydrochloride] yielded an IC50 of 6.6 µM. With `CCOC(=O)c1cc(NC(=N)N)cc(C(=O)Nc2ccc(OCCCCC3(C)CCc4c(C)c(O)c(C)c(C)c4O3)cc2)c1` (centres unmarked) [9 (m), N-[4-[4-(6-hydroxy-2,5,7,8-tetramethyl-3,4-dihydro-2H-benzo[1,2-b]pyran-2-yl)-butoxy]phenyl]-3-guanidino-5-ethoxycarbonylbenzamidehydrochloride] the IC50 was 9 µM.
